Source: US20260199426A1, “CYCLIC LIPOPEPTIDE ANTIBIOTIC COMPOUNDS FOR USE IN THE TREATMENT OF PROTEIN AGGREGATION DISEASE” (DEUTSCHES ZENTRUM FÜR NEURODEGENERATIVE ERKRANKUNGEN E. V., priority 2022, published 2026)
*1 amine or outer side, *2 acyl side, *3 side chain or, on linkers, in order; H or OH if unused. Where a SMILES comes first, the peptide text is derived from it. Bridges are numbered along the chain shown (N, C = ends). [ ]: non-standard residue; d: D form. The star is where a group is joined. ξ: configuration not given here. X2 = O=C(C(N[*:1])c1ccc(OC2OC(CO)C(O)C(O)C2OC2OC(CO)C(O)C(O)C2O)cc1)[*:2]; Undeca(2Z,4E)dienoyl(10-Me) = CC(C)CCCC/C=C/C=C\C(=O)*; Octa(2Z,4E)dienoyl(7-Me) = CC(C)C/C=C/C=C\C(=O)*; X5 = O=C(C(N[*:1])c1cc(Cl)c(O)c(Cl)c1)[*:2]; ξPhg(3-Cl-4-OH) = NC(C(=O)O)c1ccc(O)c(Cl)c1; X1 = NC(=O)C(O[*:3])C(N[*:1])C(=O)[*:2]; X4 = N=C1NCC(CC(N[*:1])C(=O)[*:2])N1; Hpg = N[CH](C(=O)O)c1ccc(O)cc1; X3 = CCC(C)CCCC/C=C/C=C\C(=O)*; Cit = NC(=O)NCCC[CH](N)C(=O)O; Orn = NCCC[CH](N)C(=O)O; X6 = Cc1ccccc1CC(=O)*

Assays:
[1] = test system: Tau aggregation in HEK biosensor cells (TauRD^LM-GFP); details: induced by cell lysate containing Tau aggregates; 0.25 μM to 40 μM, 22 h, lipofectamine
[2] = target: N-terminally acetylated alpha-synuclein (Asyn) (Homo sapiens, UniProt P37840); assay: Seeded α-synuclein aggregation assay (ThT fluorescence, TEM); type: biochemical; details: for in vitro aggregation of alpha-synuclein (ThT fluorescence): 3-fold excess of compound, 25 μM Asyn monomers, 1% (v/v) fibril seeds, 37° C.; for Asyn fibril morphology (TEM) / Asyn oligomer formation (TEM): compound/Asyn mixtures
Method: (§1) (A, B) Thioflavin-T (ThT) fluorescence curves of N-terminally acetylated alpha-synuclein (Asyn) in the absence (cross) and presence of a 3-fold excess (white circles) of compound. […] Quantitative analysis of Asyn aggregation kinetics was performed by nonlinear regression with sigmoidal fitting to determine the midpoint value (Tm) of the fluorescence curve as well as the fluorescence span. Unpaired two-tailed t-test was performed to test the null hypothesis (p≤0.0332(*), p≤0.002(**), p≤0.0002 (***), p≤0.0001 (****)). […] (C) TEM imaging analysis of the compound/Asyn mixtures. Scale bars correspond to 200 nm.
as §1, with “ThT” for “Thioflavin-T (ThT)”, “circles or triangles)” for “circles)”
(A) ThT fluorescence curves of N-terminally acetylated alpha-synuclein (Asyn) in the absence (cross) and presence of a 3-fold excess (white circles) of compound. […] Quantitative analysis of Asyn aggregation kinetics was performed by nonlinear regression with sigmoidal fitting to determine the midpoint value (Tm) of the fluorescence curve as well as the fluorescence span.
Asyn protein stock solutions were prepared in 50 mM HEPES at pH 7.4 with 100 mM NaCl. Stocks of compounds were prepared in the same buffer (500 μM) or as 10 mM compound in DMSO. […] The microplate was likewise subjected to the incubation and fluorescence measurement program used in in vitro assay 1. After about 2-4 days of incubation, ThT fluorescence emission reached the maximal value and the Asyn fibril-containing mixture was collected as “fibril seed” mixture for subsequent Asyn aggregation experiments.

[3] = target: T1, amylin (human islet amyloid polypeptide or hIAPP) (Homo sapiens, UniProt P10997); assay: Amylin aggregation assay (ThT); type: biochemical; details: 5 μM hIAPP monomers, various doses, 37° C.
T1 construct: 5 μM amylin (human islet amyloid polypeptide or hIAPP) monomers
T1 sequence (P10997 34-70 limits assumed): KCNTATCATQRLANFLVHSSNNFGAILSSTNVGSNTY

[4] = target: bovine serum albumin (BSA) (Bos taurus, UniProt P02769); details: Shivani A et al. 2020; cited from earlier work
bovine serum albumin (BSA), sequence (P02769 25-607): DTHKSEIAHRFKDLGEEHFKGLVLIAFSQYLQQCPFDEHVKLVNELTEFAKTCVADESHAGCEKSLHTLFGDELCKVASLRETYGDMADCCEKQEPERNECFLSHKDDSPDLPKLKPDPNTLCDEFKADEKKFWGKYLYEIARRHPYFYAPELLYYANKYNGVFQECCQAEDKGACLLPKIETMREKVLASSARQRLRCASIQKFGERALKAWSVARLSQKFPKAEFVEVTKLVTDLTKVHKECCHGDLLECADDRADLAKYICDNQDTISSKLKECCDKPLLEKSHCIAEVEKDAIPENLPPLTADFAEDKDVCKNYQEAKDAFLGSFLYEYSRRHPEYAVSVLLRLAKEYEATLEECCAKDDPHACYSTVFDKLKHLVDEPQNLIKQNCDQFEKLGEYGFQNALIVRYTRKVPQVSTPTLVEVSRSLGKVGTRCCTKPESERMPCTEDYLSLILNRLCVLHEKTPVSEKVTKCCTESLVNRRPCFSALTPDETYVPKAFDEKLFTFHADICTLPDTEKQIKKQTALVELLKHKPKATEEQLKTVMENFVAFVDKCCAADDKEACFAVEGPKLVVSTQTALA

Compound	inhibition of seeded Tau aggregation [1]	in vitro aggregation of alpha-synuclein (ThT fluorescence) [2]	Asyn fibril morphology (TEM) [2]	in vitro aggregation of amylin (final ThT fluorescence, t=50 h) [3]	Asyn oligomer formation (TEM) [2]	aggregation of bovine serum albumin (BSA) [4]
CC(C)CCCC/C=C/C=C\C(=O)NC(CC(=O)O)C(=O)NC1C(=O)NC(c2ccc(O)cc2)C(=O)NC(CCCN)C(=O)NC(C(C)O)C(=O)NC(c2ccc(O)cc2)C(=O)NC(c2ccc(O)cc2)C(=O)NC(C(C)O)C(=O)NC(CCCNC(N)=O)C(=O)NC(CC2CNC(=N)N2)C(=O)NC(c2ccc(O)cc2)C(=O)NC(CO)C(=O)NC(c2cc(Cl)c(O)c(Cl)c2)C(=O)NCC(=O)NC(CC2CNC(=N)N2)C(=O)NC(C)C(=O)NC(c2ccc(O)cc2)C(=O)OC1C (stereo not drawn) [Enduracidin A] ({Undeca(2Z,4E)dienoyl(10-Me)}-DT[Hpg][Orn]T[Hpg][Hpg]T[Cit][X4][Hpg]S[X5]G[X4]A[Hpg]; ester 2-C; configuration not given here)	showed inhibition of seeded Tau aggregation	inhibit the in vitro aggregation	shorter fibrils with a rougher surface	–	–	–
CCC(C)CCCC/C=C/C=C\C(=O)NC(CC(=O)O)C(=O)NC1C(=O)NC(c2ccc(O)cc2)C(=O)NC(CCCN)C(=O)NC(C(C)O)C(=O)NC(c2ccc(O)cc2)C(=O)NC(c2ccc(O)cc2)C(=O)NC(C(C)O)C(=O)NC(CCCNC(N)=O)C(=O)NC(CC2CNC(=N)N2)C(=O)NC(c2ccc(O)cc2)C(=O)NC(CO)C(=O)NC(c2cc(Cl)c(O)c(Cl)c2)C(=O)NCC(=O)NC(CC2CNC(=N)N2)C(=O)NC(C)C(=O)NC(c2ccc(O)cc2)C(=O)OC1C (stereo not drawn) [Enduracidin B] (X3-DT[Hpg][Orn]T[Hpg][Hpg]T[Cit][X4][Hpg]S[X5]G[X4]A[Hpg]; ester 2-C; configuration not given here)	–	inhibit the in vitro aggregation	shorter fibrils with a rougher surface	inhibit the in vitro aggregation of amylin	Asyn oligomer formation also competes with Asyn fibril formation	–
Cc1ccccc1CC(=O)NC(CC(N)=O)C(=O)NC1C(=O)NC(c2ccc(O)cc2)C(=O)NC(CCCN)C(=O)NC(C(C)O)C(=O)NC(c2ccc(O)cc2)C(=O)NC(c2ccc(O)cc2)C(=O)NC(C(C)O)C(=O)NC(Cc2ccccc2)C(=O)NC(CCCN)C(=O)NC(c2ccc(OC3OC(CO)C(O)C(O)C3OC3OC(CO)C(O)C(O)C3O)cc2)C(=O)NC(C(C)O)C(=O)NC(c2ccc(O)cc2)C(=O)NCC(=O)NC(CC(C)C)C(=O)NC(C)C(=O)NC(c2ccc(O)c(Cl)c2)C(=O)OC1C(N)=O (stereo not drawn) [NAI-603, Ramoplanin 2-methyl-phenyl derivative NAI-603] (X6-N[X1][Hpg][Orn]T[Hpg][Hpg]TF[Orn][X2]T[Hpg]GLA[ξPhg(3-Cl-4-OH)]; ester 2-C; configuration not given here)	–	–	–	inhibit the in vitro aggregation of amylin	–	–
CC(C)C/C=C/C=C\C(=O)NC(CC(N)=O)C(=O)NC1C(=O)NC(c2ccc(O)cc2)C(=O)NC(CCCN)C(=O)NC(C(C)O)C(=O)NC(c2ccc(O)cc2)C(=O)NC(c2ccc(O)cc2)C(=O)NC(C(C)O)C(=O)NC(Cc2ccccc2)C(=O)NC(CCCN)C(=O)NC(c2ccc(O)cc2)C(=O)NC(C(C)O)C(=O)NC(c2ccc(O)cc2)C(=O)NCC(=O)NC(CC(C)C)C(=O)NC(C)C(=O)NC(c2ccc(O)c(Cl)c2)C(=O)OC1C(N)=O (stereo not drawn) [Ramoplanin A2 Aglycon, Ramoplanin aglycon] ({Octa(2Z,4E)dienoyl(7-Me)}-N[X1][Hpg][Orn]T[Hpg][Hpg]TF[Orn][Hpg]T[Hpg]GLA[ξPhg(3-Cl-4-OH)]; ester 2-C; configuration not given here)	–	inhibit the in vitro aggregation	–	–	favors the formation of Asyn oligomers	–
CNC(CC(C)C)C(=O)NC1C(=O)NC(CC(N)=O)C(=O)NC2C(=O)NC3C(=O)NC(C(=O)NC(C(=O)O)c4cc(O)cc(O)c4-c4cc3ccc4O)C(O)c3ccc(c(Cl)c3)Oc3cc2cc(c3OC2OC(CO)C(O)C(O)C2OC2CC(C)(N)C(O)C(C)O2)Oc2ccc(cc2Cl)C1O (stereo not drawn) [Vancomycin, reference compound]	showed inhibition of seeded Tau aggregation	–	–	–	–	–
Teicoplanin [reference compound]	showed inhibition of seeded Tau aggregation	inhibits the in vitro aggregation	–	–	Asyn oligomer formation competes with Asyn fibril formation	inhibition of the aggregation
